Test results taken from patent US11426385B2, “Methods of improving cancer chemotherapy” (THE REGENTS OF THE UNIVERSITY OF CALIFORNIA, priority 2017, dated 2022).

Key:
[1] = system: bladder cancer PDX BL0808; assay: gemcitabine combination in bladder cancer PDX BL0808; assay type: in vivo
Procedure: PDX BL0808 was implanted into immunodeficient nod scid gamma (NSG) mice and treatment was started once tumor volume reached approximately 250 mm^3. Treatment consisted of either vehicle (5 μL/g PEG300, p.o., once daily until end of study), PTUPB (30 mg/kg in PEG300, p.o., once daily until end of study), gemcitabine (150 mg/kg in WFI, IP, once weekly, 4 times) or a combination of PTUPB with gemcitabine. Tumor volume and animal weight was monitored every other day and mice were sacrificed once tumor size reached 2 cm and tumor specific survival was recorded.

[2] = system: T24 bladder cancer cell line; assay: 72 hr cell viability assay (MTS), T24; assay type: cell-based, human; details: PTUPB 1, 2, 5, 10 μM
Procedure: (§1) Median effect analysis to determine in vitro drug-drug interaction. […] PTUPB was dissolved in dimethyl sulfoxide (DMSO) to a final stock concentration of 10 mM. […] Cells were seeded at 2,000-3,000 cells and 100 μl of medium per well into 96-well plates (Becton Dickinson, Franklin Lakes, N.J.), and incubated overnight. Different concentrations of these two drugs were diluted in culture media and added to each well. The plates were then incubated for an additional 72 hours. The control group was dosed with 0.2% DMSO. Cell viability assays (MTS) were performed according to the manufacturer's protocol (Promega, Madison, Wis.). […] Dose-response curves were generated with GraphPad Prism 5 software (GraphPad Software Inc., La Jolla, Calif.). The combination indices (CI) were determined based on the method of Chou et al (26). CI values were calculated with CompuSyn software (http://www.combosyn.com/).

p-ERK and p-AKT = assay: Western blot of PDX BL0293 tumor tissue; assay type: in vivo, NSG mice; details: day 3; BL0293 tumors
Procedure: (§2) Blood samples from mice were collected and analyzed for complete blood count (CBC), blood urea nitrogen (BUN), aspartate aminotransferase (AST), creatinine and total bilirubin at the Veterinary Medicine Comparative Pathology Laboratory of University of California Davis. The tumor, heart, liver, spleen, lung and kidney were harvested and the tissue samples were fixed in formalin or frozen at −80° C. Tumor sections were stained with hematoxylin and eosin (H&E) or were used for immunohistochemistry analysis. A board-certified pathologist provided detailed interpretation of tumor histomorphology and scoring of immunohistochemical staining. Some of the tumor sections were lysed and chromatographed using SDS-PAGE followed by transfer onto a PVDF membrane. […] The membranes were then probed with horseradish peroxidase (HRP) tagged secondary antibodies and epitopes were detected using the ECL Plus Western Blotting Detection Reagent (GE Healthcare, Piscataway, N.J.). Cell proliferation and apoptosis assessed with Ki-67 and cleaved caspase-3 antibodies (Cell Signaling, Danvers, Mass.) using an immunohistochemistry kit per the manufacturer's instructions (BioGenex, Fremont, Calif.).

[3] = system: TCCSUP bladder cancer cell line; assay: 72 hr cell viability assay (MTS), TCCSUP; assay type: cell-based, human; details: PTUPB 1, 2, 5, 10 μM
Procedure: as §1

COX-2 and sEH pathways = assay: oxylipin profile analysis (LC-MS/MS) of tumor tissue; assay type: in vivo, NSG mice
Procedure: Oxylipin profile analysis. Lipid extraction and analysis was performed as previously reported (20). Briefly, for tumor lipid mediator extraction, ˜100 mg of tumor tissues was mixed with an antioxidant solution (0.2 mg/mL butylated hydroxytoluene and 0.2 mg/mL triphenylphosphine in methanol), the surrogate solution, and 400 μL of extract solution (0.1% acetic acid with 0.2 mg/mL butylated hydroxytoluene in methanol), and then homogenized. The resulting homogenates were kept overnight at −80° C. Next day, the homogenates were centrifuged and supernatants were collected. The pellets were washed with 0.1% butylated hydroxytoluene and 0.1% acetic acid in methanol and the supernatants were collected and combined. LC-MS/MS analysis of the extracts were carried out on an Agilent 1200SL liquid chromatographic system coupled to a 4000 QTRAP MS/MS instrument (AB Sciex) as described (29).

COX-1 = COX-1 inhibitory activity (Table 3); assay type: biochemical; parameters: dose or concentration left out as unconfirmed
[4] = system: 5637 bladder cancer cells; assay: 72 hr cell viability assay (MTS) and combination index, 5637; assay type: cell-based, human
Procedure: as §1

[5] = system: bladder cancer PDX BL0293; assay: tumor growth and survival in NSG-PDX bladder cancer mouse model BL0293; assay type: in vivo, NSG mice
Procedure: (§3) Materials and Supplies. Bladder cancer subject-derived xenograft (PDX) models were provided by The Jackson Laboratory (JAX, Bar Harbor, Me.). […] All experiments utilized PDX models within the first five passages. […] Gemcitabine was purchased from LC Laboratories (Woburn, Mass.). […] The cell lines have not been tested and authenticated by the authors.
(§4) PDX bladder cancer. NSG PDX studies were performed at the University of California Davis with IACUC approval. […] Gemcitabine was dissolved in 0.9% saline and administered at a dose of 150 mg/kg (IP, weekly) for 4 weeks. Animal weight and tumor size were measured twice per week. […] The percentage of tumor growth inhibition (TGI) was calculated as follows; 100%×(1−[(V^treated(final day)−V^treated(initial day))/(V^control(final day)−V^control(initial day))]), where V is tumor volume.
(§5) Statistics. Data are presented as mean±standard error of the mean (SEM) or mean±standard deviation (SD). Group comparisons were carried out using one-way analysis of variance or Student's t test. Survival analysis was performed using the Kaplan-Meier method. A p value of less than 0.05 was considered statistically significant.

[6] = system: bladder cancer PDX BL0269; assay: tumor growth in NSG-PDX bladder cancer mouse model BL0269; assay type: in vivo, NSG mice
Procedure: as §3, §4, §5

[7] = toxicity in PDX-bearing mice (body weight, blood counts, chemistry, histology of major organs); parameters: species or system NSG mice; details: mouse, in vivo
Procedure: as §4
as §2, with “C.” for “C. Tumor sections were stained with hematoxylin and eosin (H&E) or were used for immunohistochemistry analysis. A board-certified pathologist provided detailed interpretation of tumor histomorphology and scoring of immunohistochemical staining. Some of the tumor sections were lysed and chromatographed using SDS-PAGE followed by transfer onto a PVDF membrane.”

[8] = system: J82 bladder cancer cell line; assay: 72 hr cell viability assay (MTS), J82; assay type: cell-based, human; details: PTUPB 1, 2, 5, 10 μM
Procedure: as §1

[9] = BL0293, PTUPB 30 mg/kg orally once daily, cisplatin 2 mg/kg i.v.

## NS(=O)(=O)c1ccc(-n2nc(CCCNC(=O)Nc3ccc(C(F)(F)F)cc3)cc2-c2ccccc2)cc1 [PTUPB, 4-(5-phenyl-3-{3-[3-(4-trifluoromethyl-phenyl)-ureido]-propyl}-pyrazol-1-yl)-benzenesulfonamide]
[1]; PTUPB 30 mg/kg p.o. with gemcitabine 150 mg/kg IP
  gemcitabine chemotherapy efficacy (tumor volume): extends gemcitabine chemotherapy efficacy
[1]; PTUPB with gemcitabine
  gemcitabine toxicity (animal weight): does not increase gemcitabine toxicity
  tumor specific survival: increases tumor specific survival
[2]
  effect on cisplatin cytotoxicity: did not increase cisplatin cytotoxicity
p-ERK and p-AKT
  levels of p-ERK and p-AKT: did not significantly diminish
[3]
  effect on cisplatin cytotoxicity: did not increase cisplatin cytotoxicity
COX-2 and sEH pathways; BL0269 tumors
  effect on diol metabolites 10,11-DiHDPE and 15,16-DiHODE: no effect
  increase of 10,11-EpDPE, 15,16-EpODE: approximately two-fold increase
COX-2 and sEH pathways; mouse, in vivo
  reduction of levels of prostaglandins PGE2, PGD2, TXB2, 6-keto-PGF1α in tumor: ~50%
COX-2 and sEH pathways; tumor
  decrease of diol metabolite 12,13-DiHOME: ~2 fold
  increase of 12,13-EpOME: approximately two-fold increase
COX-1
  COX-1 (% inhibition): 22.7%
[4]; Homo sapiens, single drug, 72 hr
  IC50: 90.4 µM
[4]; PTUPB 1, 2, 5 and 10 μM with cisplatin at 5 μM
  drug-drug interaction with cisplatin (combination index): modest synergistic effects
[5]; [9]
  median time to a […] increase in tumor volume: 24.4 days
  overall survival: 39.4 days
[5]; mice bearing BL0293 tumors
  anti-tumor activity, single agent: moderate anti-tumor activity
[6]; PTUPB 30 mg/kg, cisplatin 2 mg/kg, gemcitabine 150 mg/kg
  inhibition of tumor growth on addition to GC (gemcitabine and cisplatin): best inhibition of tumor growth
[6]; combined with cisplatin 2 mg/kg
  potentiation of cisplatin with respect to inhibiting tumor growth: best and most statistically significant potentiation
[7]
  body weight change: slightly decreased body weight
  histology examination of major organs: no such morphology changes were observed
[8]
  effect on cisplatin cytotoxicity: did not increase cisplatin cytotoxicity
